One assay deals with F16′A mutant ELIC. As to conditions: F16′A mutant vs wild type; as previously shown; cited from earlier work.
Assay [1] has as its target T1, wild type ELIC (Dickeya chrysanthemi, UniProt P0C7B7).
T1 construct: expressed in transfected cells; host or cells: Xenopus laevis oocytes (cRNA injection)
Kind of assay: Inhibition of GABA-elicited currents of wild-type ELIC in Xenopus oocytes. The class given is cell-based, Erwinia chrysanthemii. Particulars: wild type ELIC; inhibition measured at the GABA EC50; read-out: IC50. As to the method: Xenopus laevis oocyte-positive females were purchased from NASCO (Fort Atkinson, WI) and maintained according to standard methods. Harvested stage V and VI Xenopus oocytes were washed in four changes of Ca^2+-free ND96 [96 mM NaCl, 2 mM KCl, 1 mM MgCl2, and 5 mM HEPES (pH 7.5)], defolliculated in 1.5 mg mL^–1 collagenase type 1A for approximately 2 h, washed again in four changes of ND96, and stored in ND96 at 16 °C containing 2.5 mM sodium pyruvate, […] gentamycin, and 0.7 mM theophylline.
ELIC (GenBank accession number ADN00343.1) was kindly provided by C. Ulens. For expression in Xenopus oocytes, it was cloned into pGEMHE with the signal sequence of the human α7 nACh receptor. Site-directed mutagenesis was performed with the QuikChange mutagenesis kit (Stratagene, La Jolla, CA). cRNA was transcribed in vitro from the linearized pGEMHE cDNA template using the mMessage mMachine T7 transcription kit (Ambion, Austin, TX). Stage V and VI oocytes were injected with 20 ng of cRNA, and currents were recorded 1–3 days postinjection.
Using two-electrode voltage clamp, Xenopus oocytes were clamped at −60 mV using an OC-725 amplifier (Warner Instruments, Hamden, CT), Digidata 1322A, and the Strathclyde Electrophysiology Software Package (Department of Physiology and Pharmacology, University of Strathclyde, Glasgow, U.K.). Currents were recorded at 5 kHz and filtered at a frequency of 1 kHz. Microelectrodes were fabricated from borosilicate glass (GC120TF-10, Harvard Apparatus, Edenbridge, Kent, U.K.) using a one-stage horizontal pull (P-87, Sutter Instrument Co., Novato, CA) and filled with 3 M KCl. Pipette resistances ranged from 1.0 to 2.0 MΩ. Oocytes were perfused with ND96 at a constant rate of 12 mL min^–1 with complete solution exchange within 5 s. Drug application was accomplished via a simple gravity-fed system calibrated to run at the same rate. Inhibition by test compounds was measured at the GABA EC50 for each mutant.
Analysis and curve fitting were performed using Prism version 4.03 (GraphPad Software, San Diego, CA). Concentration–response data for each oocyte were normalized to the maximal current for that oocyte and the mean ± standard error of the mean (SEM) for a series of oocytes pooled and plotted against agonist or antagonist concentration and iteratively fit to the four-parameter logistic equation. Statistical analysis was performed using a Student’s t test.

Assay [2] has as its target T1, wild type ELIC. Particulars: previously identified; cited from earlier work.
Assay [3] has as its system ELIC with mutations of residues 2′ and 6′. As to conditions: mutations of residues 2′ and 6′ in ELIC; cited from earlier work.

SMILES strings stand for the structures. Read-outs that look alike come from different tables or passages of the source.

T1 sequence (P0C7B7 whole entry): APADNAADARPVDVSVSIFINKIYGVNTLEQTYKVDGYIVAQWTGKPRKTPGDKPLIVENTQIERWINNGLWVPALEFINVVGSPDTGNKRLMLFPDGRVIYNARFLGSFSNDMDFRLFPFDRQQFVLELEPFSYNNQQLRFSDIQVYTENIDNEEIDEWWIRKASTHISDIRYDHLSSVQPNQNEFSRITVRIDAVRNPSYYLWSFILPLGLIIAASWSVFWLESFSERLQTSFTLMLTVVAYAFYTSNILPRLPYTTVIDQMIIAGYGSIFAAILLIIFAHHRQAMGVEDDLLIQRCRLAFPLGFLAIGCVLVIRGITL

`NCCS` [cysteamine]: the “fold change in cysteamine EC50” value in the assay on F16′A mutant ELIC is recorded as below 10 fold.

On to `CCCC(C(=O)OCCN(CC)CC)(c1ccccc1)c1ccccc1` [proadifen], for which the IC50 was 8.1 µM on wild type ELIC [1] and 8 µM at wild type ELIC [2].

With `O=S1OC[C@@H]2[C@H](CO1)[C@@]1(Cl)C(Cl)=C(Cl)[C@]2(Cl)C1(Cl)Cl` (stereo partly drawn) [α-endosufan], in assay [3], the “inhibition of ELIC” value was “abolish inhibition”.

These data come from article PMC4312132, “Phenylalanine in the Pore of the Erwinia Ligand-Gated Ion Channel Modulates Picrotoxinin Potency but Not Receptor Function” (Biochemistry, 2014).
